Test [1] addresses T1, OB-Rb (Mus musculus, UniProt P48356).
T1 construct: full-length leptin receptor (OB-Rb), the receptor isoform predominantly expressed in the hypothalamus; expressed in transfected cells; host or cells: GT1-7
T1 sequence (P48356 22-1162): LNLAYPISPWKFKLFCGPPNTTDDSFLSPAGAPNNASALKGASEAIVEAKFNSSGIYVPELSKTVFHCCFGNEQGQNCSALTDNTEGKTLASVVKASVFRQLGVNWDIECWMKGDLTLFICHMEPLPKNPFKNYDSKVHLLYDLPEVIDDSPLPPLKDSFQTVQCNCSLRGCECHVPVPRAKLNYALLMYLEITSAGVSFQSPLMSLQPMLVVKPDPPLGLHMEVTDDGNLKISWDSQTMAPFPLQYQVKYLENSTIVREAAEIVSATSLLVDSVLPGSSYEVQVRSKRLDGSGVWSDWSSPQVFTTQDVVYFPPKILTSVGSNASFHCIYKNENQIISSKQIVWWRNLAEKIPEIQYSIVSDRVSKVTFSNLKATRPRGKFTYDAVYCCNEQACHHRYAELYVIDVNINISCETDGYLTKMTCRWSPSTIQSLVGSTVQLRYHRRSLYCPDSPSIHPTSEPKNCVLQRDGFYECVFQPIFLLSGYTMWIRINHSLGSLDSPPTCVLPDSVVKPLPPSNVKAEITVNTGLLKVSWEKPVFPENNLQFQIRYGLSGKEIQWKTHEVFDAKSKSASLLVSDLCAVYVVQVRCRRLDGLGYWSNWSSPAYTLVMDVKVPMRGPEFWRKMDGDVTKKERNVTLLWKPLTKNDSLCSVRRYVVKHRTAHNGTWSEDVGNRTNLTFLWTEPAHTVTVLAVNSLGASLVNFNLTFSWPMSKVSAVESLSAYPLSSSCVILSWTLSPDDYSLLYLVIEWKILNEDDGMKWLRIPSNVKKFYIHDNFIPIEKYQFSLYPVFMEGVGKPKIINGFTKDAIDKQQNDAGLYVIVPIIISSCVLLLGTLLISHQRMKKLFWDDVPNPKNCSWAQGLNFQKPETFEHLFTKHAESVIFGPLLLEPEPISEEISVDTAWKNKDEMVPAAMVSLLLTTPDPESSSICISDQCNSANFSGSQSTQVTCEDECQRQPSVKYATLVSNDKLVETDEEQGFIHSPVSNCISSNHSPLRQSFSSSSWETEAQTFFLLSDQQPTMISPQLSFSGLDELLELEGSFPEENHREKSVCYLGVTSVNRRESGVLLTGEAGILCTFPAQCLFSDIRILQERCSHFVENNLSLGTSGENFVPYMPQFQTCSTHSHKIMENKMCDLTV
The test is described as follows: SEAP reporter gene signal transduction assay in GT1–7 cells cotransfected with HRRE-SEAP and OB-Rb. The format is cell-based. The conditions noted are these: peptide 1 to 250 uM, 24 h. An excerpt:
Initial experiments to determine the mechanism of action of LEP(116–130) utilized two highly sensitive in vitro bioassays routinely used to assess leptin binding and receptor activation (see e.g., White, et al., 1997. Proc. Natl. Acad. Sci. U.S.A. 94: 10657–10662). An alkaline phosphatase (“AP”)-leptin (“OB”) fusion protein (“AP-OB”) was used to measure inhibition of leptin binding in the absence or presence of recombinant mouse leptin (positive control) or peptide, by COS-7 cells transfected with the long (signaling) form of the mouse OB receptor (“OB-RL”). Signal transduction assays were done in GT1–7 cells cotransfected with AP reporter and OB-RL constructs. Secreted alkaline phosphatase (“SEAP”) activity in response to stimulation with mouse leptin or peptide was measured by chemiluminescence.
Two days after transfection, the cells were stimulated with mouse leptin or leptin-related synthetic peptides for 24 hours. Growth media were harvested and SEAP activity was determined by chemiluminescence as described for AP-OB binding studies.
COS-7 and GT1–7 cells were cultured in DMEM supplemented with 10% fetal bovine serum, and transfected by the lipofectamine method. […] Supernatants were collected and SEAP reporter activities were measured by chemiluminescence using the GreatEscApe alkaline phosphatase detection kit as described by the manufacturer (CLONTECH). […]
On the technique in general: In a reporter assay the amount or activity of a reporter protein is the signal.

The conditions of test [2]: db/db mice, 1 mg/day ip.
Procedure: Peptide administration: LEP(116–130) and LEP(146–160) peptide amides were dissolved in sterile phosphate buffered saline (PBS, pH 7.2) and administered daily for 7 days between 1500 and 1600 h in a single 1 mg/0.2 ml ip injection. Control mice received 0.2 ml PBS (ip) only.
Feeding and weighing schedule: On day one of the study, and on each day thereafter, 200 g of pelleted rodent diet (Prolab Rat, Mouse, Hamster 3000, St.Louis Mo.; 22% crude protein, 5% crude fat, 5% fiber, 6% ash, 2.5% additional minerals) was added to the hopper on each side of the cages between 0900 and 1100 h. Food remaining after 24 h was weighed to the nearest 0.1 g, and the average amount of food consumed per mouse was calculated (mean±SEM, n=6). The mice were allowed water ad libitum throughout the study, and were weighed once daily between 0900 and 1100 h.
Each value represents the mean±SEM change in body weight or food intake for a group of six mice.
The nature of test [3]: Epitope mapping: body weight and food intake in female C57BL/6J ob/ob mice, 7 daily ip injections. The format is in vivo, mouse. The conditions noted are these: 1 mg/day ip, 7 days. The method, then: Animal procedures. Feeding and weighing schedules, as well as peptide administration protocols, are as described in EXAMPLE 8, supra.
Statistical analysis. Changes in body weight and differences in food intake between peptide-treated and vehicle-injected control mice were analyzed by analysis of variance (ANOVA) and considered significant when P<0.05.
Female ob/ob mice (n=6 per group) were given a single ip injection of 0.2 ml of vehicle (PBS, pH 7.2) or leptin-related synthetic peptide amide in 0.2 ml PBS for 7 consecutive days. Daily changes in body weight compared to pretreatment weights in both vehicle-injected control and peptide-treated mice are shown in FIG. 4. […] There was no evidence of weight loss in response to peptide treatment.

The nature of test [4]: 28-day ip study of body weight and food intake in female C57BL/6J ob/ob mice. The conditions noted are these: 1 mg per day ip, 28 days. The format is in vivo, mouse. An excerpt: In order to examine this possibility, six overlapping peptide amides, which corresponded to amino acid residues 106 to 167 of mouse leptin, were synthesized and their effects on body weight and food intake in female C57BL/6J ob/ob mice were subsequently assessed.

One sequence from patent US7208572B2, “Leptin-related peptides” (Albany Medical College, priority 1998, dated 2007) can be followed below.

Where two headings read alike, the source gives them in different places.

Turning to “A L S R L Q G S L Q D I L Q Q (ALSRLQGSLQDILQQ) [LEP(146–160)]”, the “Stimulation of SEAP reporter activity” value in test [1] is “incapable of inducing an increase in reporter gene activity”. Further, the “Weight after 7 days” value in test [2] was 36.2 ± 1.4 g. In test [2] (7 days), the Cumulative food intake turned out to be 53.5 ± 0.3 gm/mouse; the “Effect on body weight gain and food intake” value is listed as “had no effect on either body weight”; the “Percent increase (body weight)” value was “+18.3%”; the Weight increase entry was “+5.6 g”. Moreover, in test [3], the Cumulative food intake is 40.5 ± 1.0 gm/mouse, the “Percent heavier (+) or lighter (−) than initial weight” value is recorded as “+28.0%” and the “Weight gain (+) or loss (−)” value is listed as “+6.8 g”. For the same sequence, the “Weight gain and food intake vs vehicle” value in test [4] was “continued to consume food and gain weight at a rate comparable to vehicle-injected control mice”.
